Measured values reported in patent publication US9358191B2, “Deodorant composition” (priority 2002, dated 2016).

Test: Deodorizing effect on malodor gas, closed circulation system
Conditions: 1 mL on absorbent cotton, 2 hours of working
Description: Into a 4 L odorless bag, 4 L of air was included by means of an air pump. Each malodor gas (ammonia, trimethylamine, hydrogen sulfide, or methyl mercaptan) was injected thereinto by an injection syringe to regulate a gas concentration. The bag was set at a test apparatus of closed circulation system fitted with an air pump and the air pump was worked at an air amount of about 1000 mL/minute. One milliliter of the above deodorant composition was supported on an absorbent cotton (0.2 g) and the cotton was set at the discharging side of the air pump. After 2 hours of working, the remaining amount of the malodor gas in the system was measured using a dedicated gas detecting tube (Gastech Corporation) and a deodorization rate was calculated according to the following expression.
As a comparative example, an absorbent cotton impregnated with 1 mL of a 20 mM aqueous solution of gallic acid was set at the discharging side of the air pump, instead of the absorbent cotton on which the above deodorant composition was supported. Then, the test was conducted similarly and the deodorization rate was calculated.
Deodorization rate (%)=100×{1−(A/B)}
In the above expression, A means the measured concentration of the malodor components and B means the concentration of the malodor components measured in the control. The control is the case that an absorbent cotton was impregnated with 1 mL of water instead of 1 mL of the above deodorant composition.

O=C(O)c1cc(O)c(O)c(O)c1 [Gallic acid aqueous solution, gallic acid]
Deodorization rate (Ammonia, initial concentration 60 ppm): 85.0% | Deodorization rate (Hydrogen sulfide, initial concentration 120 ppm): 5.0% | Deodorization rate (Methyl mercaptan, initial concentration 100 ppm): 0% | Deodorization rate (Trimethylamine, initial concentration 130 ppm): 70.0%
